In PubChem BioAssay (NCI):
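The compound was tested at five concentrations on cells cultured in 96-well plates, with a 48-hour exposure period. Here, GI50 denotes the concentration required for 50% inhibition of growth. TGI marks complete inhibition of growth.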

Assays:
Test in all cases: growth of human tumour cells (NCI), 48 h
[1] = system: HOP-62 NSCLC
[2] = system: HOP-92 NSCLC
[3] = system: IGROV1 ovarian
[4] = system: K-562 leukemia
[5] = system: NCI-H460 lung
[6] = system: OVCAR-4 ovarian
[7] = system: SF-295 CNS
[8] = system: SF-539 CNS
[9] = system: SNB-19 CNS
[10] = system: UACC-257 melanoma

| Structure (SMILES) | GI50 [1] | TGI [1] | GI50 [2] | TGI [2] | GI50 [3] | TGI [3] | GI50 [4] | TGI [4] | GI50 [5] | TGI [5] | GI50 [6] | TGI [6] | GI50 [7] | TGI [7] | GI50 [8] | TGI [8] | GI50 [9] | TGI [9] | GI50 [10] | TGI [10] |
| --- | --- | --- | --- | --- | --- | --- | --- | --- | --- | --- | --- | --- | --- | --- | --- | --- | --- | --- | --- | --- |
| COc1ccc2c(c1)[n+](=O)c(/C=C/C(=O)c1cc(OC)c(OC)c(OC)c1)c(C)n2[O-] | 19.4 µM | 47 µM | 2560 nM | 19.1 µM | 18.2 µM | > 100 µM | 2590 nM | > 100 µM | 13.3 µM | 45.5 µM | 9.35 µM | > 100 µM | 44800 nM | > 100 µM | 15.7 µM | 38.8 µM | 29.7 µM | > 100 µM | 9.61 µM | > 100 µM |
| Cc1cc(C)c(-c2c(O)c(Br)c(-c3c(C)cc(C)c(Br)c3C)c(O)c2Br)c(C)c1Br | 2.81 µM | 10.1 µM | 660 nM | 5.67 µM | 3.59 µM | 13.9 µM | 2650 nM | 13.9 µM | 2.16 µM | 6.5 µM | 2.56 µM | 9.92 µM | 1830 nM | 5.01 µM | 2.6 µM | 8.11 µM | – | – | 2.52 µM | 12.2 µM |
| COC(=O)C1=C(O)c2cc(OC)c(OC)c(OC)c2C(c2ccc3c(c2)OCO3)[C@@H]1C(=O)OC (some centres not stated) | – | > 100 µM | – | > 100 µM | – | > 100 µM | – | > 100 µM | – | > 100 µM | – | > 100 µM | – | 13.4 µM | – | 5.52 µM | – | – | – | > 100 µM |
| COc1ccc(CN2c3ccccc3Sc3ccccc32)cc1O | 0.384 µM | 17.4 µM | 502 nM | 17.5 µM | 1.93 µM | 21.3 µM | 365 nM | 26.6 µM | 0.444 µM | 13.4 µM | 0.726 µM | 19.3 µM | 225 nM | 0.646 µM | 0.27 µM | 0.823 µM | 0.771 µM | 26.9 µM | – | – |
| NC(=S)c1cccc(C2Nc3ccccc3O2)c1 (configuration not stated) | – | > 100 µM | – | > 100 µM | – | > 100 µM | – | > 100 µM | – | > 100 µM | – | > 100 µM | – | > 100 µM | – | > 100 µM | – | > 100 µM | – | > 100 µM |
| CC(=O)/C(=N\N=C(N)N)c1ccccc1 | – | > 100 µM | – | > 100 µM | – | > 100 µM | – | > 100 µM | – | > 100 µM | – | > 100 µM | – | > 100 µM | – | > 100 µM | – | > 100 µM | – | > 100 µM |
| Cc1cc(C)nc(NC(=O)COc2ccc(Cl)cc2)c1 | – | > 100 µM | – | > 100 µM | – | > 100 µM | – | > 100 µM | – | > 100 µM | – | > 100 µM | – | > 100 µM | – | > 100 µM | – | > 100 µM | – | > 100 µM |
| CC(NC1CCCC[C@@H]1O)c1ccccc1 (some centres not stated) | – | > 100 µM | – | > 100 µM | – | > 100 µM | – | > 100 µM | – | > 100 µM | – | > 100 µM | – | > 100 µM | – | – | – | > 100 µM | – | > 100 µM |
| CCOC(=O)c1sc(NC(=O)COc2ccc(/C=C3\CCc4cc(OC)ccc4C3=O)cc2)nc1C | 15.2 µM | 30.6 µM | 1180 nM | 4.61 µM | 1.63 µM | 6.22 µM | 3710 nM | > 40.3 µM | 14.3 µM | 28.7 µM | 11.8 µM | 27.7 µM | 11100 nM | 23.9 µM | 11.7 µM | 23.9 µM | 12.2 µM | 25.1 µM | 11.5 µM | 25 µM |
| Cn1cnnc1Sc1c([N+](=O)[O-])nc(-c2ccc([N+](=O)[O-])cc2)n1C | – | > 100 µM | – | 34.9 µM | – | 33.4 µM | – | 53.2 µM | – | > 100 µM | – | 29.5 µM | – | > 100 µM | – | 33.2 µM | – | > 100 µM | – | 29.5 µM |
| CN(C)C(=S)/N=c1\ssc(=Nc2ccccc2)n1-c1ccccc1 | – | 75.5 µM | – | 46 µM | – | > 100 µM | – | > 100 µM | – | – | – | 18.9 µM | – | > 100 µM | – | 32 µM | – | – | – | > 100 µM |
| O=C(O)CCN1C(=S)CSC1=S | – | > 100 µM | – | > 100 µM | – | > 100 µM | – | > 100 µM | – | > 100 µM | – | > 100 µM | – | > 100 µM | – | > 100 µM | – | > 100 µM | – | > 100 µM |
| COc1ccc(N=c2nc3sc4cc(Cl)ccc4n3c(N)c2C#N)cc1 | 4.84 µM | > 100 µM | 26500 nM | > 88.6 µM | 3.48 µM | > 66.1 µM | 22500 nM | > 100 µM | 21.1 µM | > 100 µM | 3.51 µM | > 100 µM | 2510 nM | 23.1 µM | 9.71 µM | > 100 µM | 20.7 µM | > 100 µM | 35.4 µM | > 100 µM |
| N.N.N.N.O=S([O-])[O-].[Co+3].[N-]=[N+]=[N-] | > 100 µM | > 100 µM | > 100000 nM | > 100 µM | > 100 µM | > 100 µM | > 100000 nM | > 100 µM | > 100 µM | > 100 µM | > 100 µM | > 100 µM | > 100000 nM | > 100 µM | > 100 µM | > 100 µM | > 100 µM | > 100 µM | > 100 µM | > 100 µM |
| COc1c2c(c(O)c3c4c(c(C)cc13)C1OC3(C(OC)OC5CC(C)(O)C(OC6CC(C)(O)C(O)C(C)O6)C(C)O5)OC1C(OC)(O4)C31CO1)C(=O)C(O)CC2OC1CC(C)(O)C(OC(C)=O)C(C)O1 (configuration not stated) | – | – | – | < 0.01 µM | – | 0.957 µM | – | 1.66 µM | – | 0.15 µM | – | < 0.01 µM | – | < 0.023 µM | – | < 0.01 µM | – | 0.739 µM | – | < 0.01 µM |
| CCOC(=O)C(Cc1cc(OC)c(CC(C(=O)OCC)C(=O)OCC)cc1OC)C(=O)OCC | – | > 100 µM | – | 83.8 µM | – | > 100 µM | – | > 100 µM | – | > 100 µM | – | > 100 µM | – | > 100 µM | – | > 100 µM | – | > 100 µM | – | > 100 µM |
| O=c1[nH]c(=S)[nH]c2c1CCCN2 | – | > 100 µM | – | > 100 µM | – | > 100 µM | – | – | – | – | – | – | – | > 100 µM | – | – | – | > 100 µM | – | > 100 µM |
